Consider 28 compounds from patent US20250320189A1, “NEW DERIVATIVES FOR TREATING TRPM3 MEDIATED DISORDERS” (Katholieke Universiteit Leuven, priority 2022, published 2025).

The test deals with T1, mouse TRPM3α2 (mTRPM3) ion channel (Mus musculus, UniProt J9SQF3).
T1 construct: expressed in transfected cells; host or cells: flip-in (Flp-In) HEK293
As to the kind of experiment: Monitoring the TRPM3 ion channel driven Ca2+ uptake (Fluo-4 AM assay). Type of test: cell-based. To be noted: mTRPM3alpha2 overexpressing flip-in HEK293 cells, stimulated with Pregnenolone sulfate (PS) 50 μM. The protocol: In order to monitor the inhibition of the mouse TRPM3α2 (mTRPM3) ion channel by the compounds of the invention, a cellular system making use of an mTRPM3alpha2 or hTRPM3 overexpressing cell line (flip-in HEK293) was used. The TRPM3 channel was stimulated/opened with Pregnenolone sulfate (PS) (50 μM) which results in Ca^2+ influx.
For mTRPM3, the intracellular Ca^2+ was measured with a Calcium responsive dye, Fluor-4 AMV ester (Invitrogen). Cells were cultured until a confluence of 80-90%, washed with Versene (Invitrogen) and detached from the surface by a short incubation with 0.05% Trypsin (Invitrogen). The trypsination process was stopped by the addition of complete cell culture medium (DMEM, glutamax, 10% FCS, NEAA,Pen-Strep). Cells were collected and resuspended in Krebs buffer without Calcium at RT.
Prior the cell seeding (±2000 cells/well into a black, 384 well plate (Greiner)) the diluted compound was added in the assay plate, together with the PS dissolved in Krebs buffer containing Calcium. […] Directly after cell addition the plates were read on an Envision fluorescence reader (PerkinElmer) by an Excitation of 485 nm and emission at 535 nm.
Channel inhibition was calculated compared to a non-PS stimulated control versus a condition stimulated with PS (50 μM) with vehicle. The ability of the compounds of the invention to inhibit this activity was determined as: Percentage inhibition=[1−((RFU determined for sample with test compound present−RFU determined for sample with positive control inhibitor) divided by (RFU determined in the presence of vehicle−RFU determined for sample with positive control inhibitor))]*100.
The activities of the Example compounds tested are depicted in the table below. The activity ranges A, B and C refer to IC50 values in the Fluo-4 AM assay as follows: “A”: IC50<1 μM; “B”: 1 μM≤IC50≤20 μM and “C”: IC50>20 μM

Molecules are shown by their SMILES.

T1 sequence (J9SQF3 1-1709 isoform J9SQF3-12): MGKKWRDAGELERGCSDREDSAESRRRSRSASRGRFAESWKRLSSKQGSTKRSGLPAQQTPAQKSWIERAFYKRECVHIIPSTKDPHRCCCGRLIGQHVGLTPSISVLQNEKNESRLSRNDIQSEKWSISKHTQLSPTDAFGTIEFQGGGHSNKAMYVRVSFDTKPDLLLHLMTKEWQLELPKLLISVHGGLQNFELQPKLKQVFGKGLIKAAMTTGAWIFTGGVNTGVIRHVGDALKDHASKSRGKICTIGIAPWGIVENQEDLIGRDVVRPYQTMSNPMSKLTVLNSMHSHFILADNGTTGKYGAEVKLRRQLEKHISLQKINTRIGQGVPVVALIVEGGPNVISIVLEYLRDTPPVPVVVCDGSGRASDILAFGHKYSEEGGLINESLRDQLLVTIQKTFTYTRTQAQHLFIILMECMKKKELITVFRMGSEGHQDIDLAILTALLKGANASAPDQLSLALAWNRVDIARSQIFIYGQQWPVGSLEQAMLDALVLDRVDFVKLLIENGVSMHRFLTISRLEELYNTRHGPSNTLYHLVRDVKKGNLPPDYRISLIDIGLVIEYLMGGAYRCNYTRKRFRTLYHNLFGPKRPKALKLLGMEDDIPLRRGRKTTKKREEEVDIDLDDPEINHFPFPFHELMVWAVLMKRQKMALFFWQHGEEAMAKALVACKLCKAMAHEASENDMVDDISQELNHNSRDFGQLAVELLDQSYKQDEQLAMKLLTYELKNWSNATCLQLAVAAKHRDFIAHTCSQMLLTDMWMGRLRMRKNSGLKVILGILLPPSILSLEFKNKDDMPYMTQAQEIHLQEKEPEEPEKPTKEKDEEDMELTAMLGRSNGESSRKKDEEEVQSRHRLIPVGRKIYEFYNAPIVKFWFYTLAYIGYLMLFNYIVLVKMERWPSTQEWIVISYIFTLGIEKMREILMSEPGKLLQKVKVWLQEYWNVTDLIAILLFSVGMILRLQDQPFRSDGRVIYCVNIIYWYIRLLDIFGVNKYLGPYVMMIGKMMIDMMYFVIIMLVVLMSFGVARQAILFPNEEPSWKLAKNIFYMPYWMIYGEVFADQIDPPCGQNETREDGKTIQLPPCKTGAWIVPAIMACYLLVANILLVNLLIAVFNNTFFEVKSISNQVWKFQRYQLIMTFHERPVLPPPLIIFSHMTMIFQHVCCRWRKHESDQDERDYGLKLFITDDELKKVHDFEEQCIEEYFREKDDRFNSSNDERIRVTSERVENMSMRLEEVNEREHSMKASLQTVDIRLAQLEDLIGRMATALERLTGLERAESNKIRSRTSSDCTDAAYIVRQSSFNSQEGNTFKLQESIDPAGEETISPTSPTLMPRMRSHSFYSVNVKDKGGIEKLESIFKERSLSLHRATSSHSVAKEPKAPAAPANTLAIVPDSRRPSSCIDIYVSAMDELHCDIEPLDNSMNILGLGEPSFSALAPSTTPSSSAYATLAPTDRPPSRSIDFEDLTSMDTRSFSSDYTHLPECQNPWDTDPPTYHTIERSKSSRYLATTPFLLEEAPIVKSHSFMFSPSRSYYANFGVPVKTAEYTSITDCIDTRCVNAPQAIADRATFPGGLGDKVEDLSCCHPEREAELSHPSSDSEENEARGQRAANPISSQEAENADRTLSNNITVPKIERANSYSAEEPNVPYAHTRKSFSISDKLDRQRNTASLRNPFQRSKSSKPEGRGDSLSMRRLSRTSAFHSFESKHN

`Cc1oc2ccc(OCC3(C(F)F)CC3)cc2c1C(=O)N[C@@H](CO)C(N)=O` [Cpd 003, (2S)-2-[(5-{[1-(difluoromethyl)cyclopropyl]methoxy}-2-methyl-1-benzofuran-3-yl)formamido]-3-hydroxypropanamide] gave an IC50 below 1 µM.

On to `Cc1oc2ccc(OCC3CC3(C)C)cc2c1C(=O)NC1CCNCC1(F)F` (single isomer, unassigned) [Cpd 033-En4, N-(3,3-difluoropiperidin-4-yl)-5-[(2,2-dimethylcyclopropyl)methoxy]-2-methyl-1-benzofuran-3-carboxamide], for which the IC50 lay in the range of 1 to 20 µM. `Cc1oc2ccc(OCC3CC3)cc2c1C(=O)NC1(C(N)=O)CCOC1` (single isomer, unassigned) [Cpd 035 - En2, N-(3-carbamoyloxolan-3-yl)-5-(cyclopropylmethoxy)-2-methyl-1-benzofuran-3-carboxamide] showed a 50% inhibitory concentration (IC50) below 1 µM. On to `Cc1oc2ccc(OCC(F)(F)F)cc2c1C(=O)NC(C)(CO)C(N)=O` (single isomer, unassigned) [Cpd 047 - En1, 3-hydroxy-2-methyl-2-{[2-methyl-5-(2,2,2-trifluoroethoxy)-1-benzofuran-3-yl]formamido}propanamide], for which the 50% inhibitory concentration (IC50) fell in the range of 1 to 20 µM. Next, `Cc1oc2ccc(OCC3CC3)cc2c1C(=O)N[C@@H](CO)C(N)=O` [Cpd 001, (2S)-2-{[5-(cyclopropylmethoxy)-2-methyl-1-benzofuran-3-yl]formamido}-3-hydroxypropanamide]: below 1 µM. In turn, `Cc1oc2ccc(OCC3CC3(C)C)cc2c1C(=O)NC(C)(CO)C(N)=O` (single isomer, unassigned) [Cpd 049 - En2, 2-({5-[(2,2-dimethylcyclopropyl)methoxy]-2-methyl-1-benzofuran-3-yl}formamido)-3-hydroxy-2-methylpropanamide] came in with a concentration for half-maximal inhibition (IC50) below 1 µM. `Cc1oc2ccc(OCC3CC3)cc2c1C(=O)NC(CO)C(N)C(F)(F)F` (single isomer, unassigned) [Cpd 056 - En2, N-[(2)-3-amino-4,4,4-trifluoro-1-hydroxybutan-2-yl]-5-(cyclopropylmethoxy)-2-methyl-1-benzofuran-3-carboxamide] returned an IC50 below 1 µM. `Cc1oc2ccc(OCCC3CC3)cc2c1C(=O)N[C@H](C(N)=O)[C@@H](C)O` [Cpd 012, (2S,3R)-2-{[5-(2-cyclopropylethoxy)-2-methyl-1-benzofuran-3-yl]formamido}-3-hydroxybutanamide] showed an IC50 below 1 µM. The value for `Cc1oc2ccc(OCC3CC3)cc2c1C(=O)NC(C)(CO)CO` [Cpd 023, 5-(cyclopropylmethoxy)-N-(1,3-dihydroxy-2-methylpropan-2-yl)-2-methyl-1-benzofuran-3-carboxamide] was below 1 µM; that for `Cc1oc2ccc(OCC34CC(C)(C3)C4)cc2c1C(=O)NC(C)(CO)C(N)=O` (single isomer, unassigned) [Cpd 052 - En2, 3-hydroxy-2-methyl-2-{[2-methyl-5-({3-methylbicyclo[1.1.1]pentan-1-yl}methoxy)-1-benzofuran-3-yl]formamido}propenamide] was below 1 µM. The value for `Cc1oc2ccc(OCC3CC3)cc2c1C(=O)NC1(C(N)=O)CCOCC1` [Cpd 037, N-(4-carbamoyloxan-4-yl)-5-(cyclopropylmethoxy)-2-methyl-1-benzofuran-3-carboxamide] was below 1 µM; that for `Cc1oc2ccc(OCC3CC3(C)C)cc2c1C(=O)NC(C)(CO)C(N)=O` (single isomer, unassigned) [Cpd 049 - En1, 2-({5-[(2,2-dimethylcyclopropyl)methoxy]-2-methyl-1-benzofuran-3-yl}formamido)-3-hydroxy-2-methylpropanamide] was below 1 µM.

Turning to `Cc1oc2ccc(OCC3CC(F)(F)C3)cc2c1C(=O)NC(C)(CO)C(N)=O` (single isomer, unassigned) [Cpd 054 - En2, 2-({5-[(3,3-difluorocyclobutyl)methoxy]-2-methyl-1-benzofuran-3-yl}formamido)-3-hydroxy-2-methylpropanamide], the half-maximal inhibitory concentration (IC50) is below 1 µM. `Cc1oc2ccc(OCC3CC3)cc2c1C(=O)NC1(CO)CCNC1=O` (single isomer, unassigned) [Cpd 028 - En2, 5-(cyclopropylmethoxy)-N-[3-(hydroxymethyl)-2-oxopyrrolidin-3-yl]-2-methyl-1-benzofuran-3-carboxamide]: the 50% inhibitory concentration (IC50) is below 1 µM. `Cc1oc2ccc(OCC3CC3)cc2c1C(=O)NC1(CO)CCNC1=O` (single isomer, unassigned) [Cpd 028 - En1, 5-(cyclopropylmethoxy)-N-[3-(hydroxymethyl)-2-oxopyrrolidin-3-yl]-2-methyl-1-benzofuran-3-carboxamide] yielded an IC50 below 1 µM.

Consider `Cc1oc2ccc(OCC3(C(F)(F)F)CC3)cc2c1C(=O)NC(C)(CO)C(N)=O` (single isomer, unassigned) [Cpd 048 - En2, 3-hydroxy-2-methyl-2-[(2-methyl-5-{[1-(trifluoromethyl)cyclopropyl]methoxy}-1-benzofuran-3-yl)formamido]propanamide], for which the IC50 is below 1 µM. Next, `Cc1oc2ccc(OCC(F)(F)F)cc2c1C(=O)NC(C)(CO)C(N)=O` (single isomer, unassigned) [Cpd 047 - En2, 3-hydroxy-2-methyl-2-{[2-methyl-5-(2,2,2-trifluoroethoxy)-1-benzofuran-3-yl]formamido}propanamide]: below 1 µM; `Cc1oc2ccc(OCC3CCCC3(F)F)cc2c1C(=O)NC(CO)C(N)=O` (stereo not shown) [Cpd 013, 2-({5-[(2,2-difluorocyclopentyl)methoxy]-2-methyl-1-benzofuran-3-yl}formamido)-3-hydroxypropanamide]: below 1 µM. `Cc1oc2ccc(OCC3CCC3)cc2c1C(=O)NC1CCNCC1(F)F` (single isomer, unassigned) [Cpd 019 - En1, 5-(cyclobutylmethoxy)-N-(3,3-difluoropiperidin-4-yl)-2-methyl-1-benzofuran-3-carboxamide] gave an IC50 of 1 to 20 µM. Next, `Cc1oc2ccc(OCC3CC3(F)F)cc2c1C(=O)NC(CO)CC(F)(F)F` (single isomer, unassigned) [Cpd 057 - En2, 5-[(2,2-difluorocyclopropyl)methoxy]-2-methyl-N-(4,4,4-trifluoro-1-hydroxybutan-2-yl)-1-benzofuran-3-carboxamide]: below 1 µM; `Cc1oc2ccc(OCC3CC3)cc2c1C(=O)NC(CO)C(N)C(F)(F)F` (single isomer, unassigned) [Cpd 056 - En4, N-[(2)-3-amino-4,4,4-trifluoro-1-hydroxybutan-2-yl]-5-(cyclopropylmethoxy)-2-methyl-1-benzofuran-3-carboxamide]: 1 to 20 µM.

In turn, `Cc1oc2ccc(OCC(C)(C)C)cc2c1C(=O)NC1CCNCC1(F)F` (single isomer, unassigned) [Cpd 043-En2, N-(3,3-difluoropiperidin-4-yl)-5-(2,2-dimethylpropoxy)-2-methyl-1-benzofuran-3-carboxamide] returned a half-inhibitory concentration (IC50) of 1 to 20 µM. The value for `Cc1oc2ccc(OCC3CC3(C)C)cc2c1C(=O)NC(C)(CO)C(N)=O` (single isomer, unassigned) [Cpd 049 - En3, 2-({5-[(2,2-dimethylcyclopropyl)methoxy]-2-methyl-1-benzofuran-3-yl}formamido)-3-hydroxy-2-methylpropanamide] was below 1 µM; that for `Cc1oc2ccc(OCC3CC3)cc2c1C(=O)NC(C)(CO)C(N)=O` (single isomer, unassigned) [Cpd 017 - En1, 2-{[5-(cyclopropylmethoxy)-2-methyl-1-benzofuran-3-yl]formamido}-3-hydroxy-2-methylpropanamide] was below 1 µM; that for `Cc1oc2ccc(OCC3CC3)cc2c1C(=O)NC(C)(C)C(N)=O` [Cpd 016, 2-{[5-(cyclopropylmethoxy)-2-methyl-1-benzofuran-3-yl]formamido}-2-methylpropanamide] was below 1 µM. `Cc1oc2ccc(OCC3CC3(C)C)cc2c1C(=O)NC1CCNCC1(F)F` (single isomer, unassigned) [Cpd 033-En1, N-(3,3-difluoropiperidin-4-yl)-5-[(2,2-dimethylcyclopropyl)methoxy]-2-methyl-1-benzofuran-3-carboxamide] came in with an IC50 of 1 to 20 µM. The compound `Cc1oc2ccc(OCC3CC3)cc2c1C(=O)NC1(C(N)=O)CCOC1` (single isomer, unassigned) [Cpd 035 - En1, N-(3-carbamoyloxolan-3-yl)-5-(cyclopropylmethoxy)-2-methyl-1-benzofuran-3-carboxamide] came in with an IC50 below 1 µM.

`Cc1oc2ccc(OCC3CC3)cc2c1C(=O)NC1(CO)CC1` [Cpd 026, 5-(cyclopropylmethoxy)-N-[1-(hydroxymethyl)cyclopropyl]-2-methyl-1-benzofuran-3-carboxamide] returned an IC50 of 1 to 20 µM.
